Data on 26 compounds can be found in PubChem BioAssay (NCI).

Holding throughout (assay): NCI-60 cell line screen, 48 h
In assay [1] the test system is A498 renal.
For assay [2], the system named is CAKI-1 renal.
Assay [3] has as its system EKVX NSCLC.
For assay [4], the system named is KM12 colon.
Assay [5] concerns MALME-3M melanoma.
Assay [6] has as its system NCI-H226 lung.
Assay [7] deals with RPMI-8226 leukemia.
Assay [8] relates to TK-10 renal.
Assay [9] concerns UO-31 renal.
Assay [10] deals with SNB-75 CNS.

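Method: 48-hour compound exposure of cells in 96-well plates, five concentrations, linear interpolation of endpoints. Here, GI50 denotes the concentration required for 50% inhibition of growth. TGI marks complete inhibition of growth.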

For `O=C1/C(=C/c2[nH]ncc2-c2ccc(Cl)cc2)C(=O)N(c2ccccc2)C1c1ccccc1` (centres undefined), the TGI in assay [1] stood at 69.6 µM; in assay [2], 31.1 µM; in assay [3] it was 51.3 µM; in assay [4], 79.5 µM; in [5] it was 62.5 µM; in [6], 67.3 µM. In addition, the values for the TGI in assay [7], in assay [8] and in assay [9] were 32.2 µM, over 100 µM and 58.7 µM, respectively.
On to `OCCCSCCO`, for which the TGI in assay [1], in [2], in assay [3], in assay [4], in assay [5] and in [6] was over 100 µM each time. Besides, the TGI in assay [7], in [10], in [8] and in assay [9] was over 100 µM in each case.
With `O=C(Nc1ccc(-n2ccc3c(NC(=O)c4ccccc4)nccc32)cc1)Nc1cccc(C(F)(F)F)c1`, the GI50 in assay [1] is 6.39 µM; in [2] it was 10.8 µM; in assay [3], 5.73 µM; in [4] it was 0.41 µM; in assay [5], 13.7 µM; in assay [6], 14.3 µM. For the same compound, the GI50 in assay [7] is 1.64 µM; in [10], 7.67 µM; in assay [8], 3.87 µM; in assay [9] it was 13.4 µM. Besides, the TGI in [1] was determined as 21 µM; in assay [2] it was 37.4 µM; in [3] it was 22.1 µM; in [4], 11.3 µM; in assay [5], 31.2 µM; in [6], 29.8 µM. The TGI came to 4.81 µM in assay [7], 23.3 µM in assay [10], 18.8 µM in [8] and 31.7 µM in assay [9].
As for `COC(=O)C1CC23C4=C(CCC41)CCC1CN4CC(C)C(CC(OC(C)=O)C12COC(C)=O)C43O` (centres undefined), the TGI in [1], in assay [2], in [3], in [4], in assay [5] and in assay [7] was over 100 µM throughout. For the same compound, the TGI in assay [10], in assay [8] and in assay [9] was over 100 µM in each case.
On to `CCOC(=O)c1c(-c2cccc(Cl)c2)c(C(=O)OC)c(C)c2sc(C=O)nc12`, for which the TGI came out at 43 µM in [2]; 31.9 µM in assay [3]; 37.8 µM in [4]; 38 µM in assay [5]; 44.2 µM in assay [6]; 46.4 µM in [7]. Besides, the TGI in assay [10] was over 100 µM; in assay [8], 50 µM; in [9] it was 37.8 µM.
For the compound `Cc1n[n+]([O-])c(C)cc1[N+](=O)[O-]`, the TGI in assay [1] came to 40.6 µM; in assay [3], 45.4 µM; in assay [5] it was 35.3 µM; in assay [6], 60 µM; in [7] it was 6.31 µM; in assay [10], 54 µM. The TGI in assay [8] is 24.5 µM; in assay [9], 29.7 µM.
Take `Cc1oc(N)c(S(=O)(=O)c2cc3ccccc3n(O)c2=N)c1C`: the TGI in assay [1], in assay [2], in [3], in assay [4], in assay [5] and in assay [6] was over 100 µM in each case. For the same compound, the TGI in assay [7], in [10], in assay [8] and in assay [9] was over 100 µM in each case.
Regarding `CC1(C(=O)O)C[C@](C)(C(=O)OCc2ccccc2)C[C@](C)(C(=O)OCc2ccccc2)C1` (some centres undefined), the TGI in [2] was 71.2 µM; in [3] it was 75.7 µM; in assay [4], 99.5 µM; in [5] it was over 100 µM; in [6], over 100 µM; in assay [7], 72.6 µM. The results for the TGI in assay [10], in assay [8] and in [9] were 79.7 µM, over 100 µM and 40.7 µM, respectively.
Turning to `COc1cc(C2c3cc4c(cc3[C@@H](Nc3ccc(Oc5ccccc5)cc3)C3COC(=O)[C@H]23)OCO4)cc(OC)c1O` (some centres undefined), the TGI was 9.6 µM in [1]; 6.76 µM in [2]; over 100 µM in [3]; over 100 µM in assay [4]; over 100 µM in assay [5]; 7.9 µM in assay [6]. The TGI is 5.86 µM in [7], 96.9 µM in [10] and over 100 µM in assay [9].
As to `CC1=CC(O)C(C(O)(C(F)(F)F)C(F)(F)F)C(C)(C)C1` (centres undefined), the TGI in [1] was 0.0823 µM; in assay [2] it was over 10 µM; in [3], over 10 µM; in assay [4], over 10 µM; in assay [5] it was over 10 µM; in assay [6], over 10 µM. Besides, the TGI in [7], in assay [10] and in [8] was over 10 µM each time.
`Cc1cc2ccc(OC(=O)c3ccc(N=C(N)N)cc3)cc2oc1=O`: the TGI in [1] is 43.9 µM; in assay [2] it was over 100 µM; in [3], over 100 µM; in assay [4], 61.1 µM; in assay [5], 60.7 µM; in [6] it was 56.2 µM. Besides, the TGI in assay [7] is 55.1 µM; in [10], 71.9 µM; in [8], 49.8 µM; in assay [9], over 100 µM.
As to `COc1ccc(-c2nn(-c3ccc(NC(=O)c4cc(Cl)cc(Cl)c4)cc3)cc2-c2ccncc2)cc1Cl`, the GI50 in assay [1] was 3.04 µM; in assay [2], 3.04 µM; in assay [4], 4.29 µM; in assay [6], over 100 µM; in assay [7] it was 0.494 µM; in assay [8] it was 6.18 µM. In addition, the GI50 in assay [9] was 3.43 µM. The TGI was over 100 µM in [1]; over 100 µM in assay [2]; over 100 µM in [4]; over 100 µM in assay [6]; 3.26 µM in [7]; over 100 µM in [8]. Also, the TGI in [9] was over 100 µM.
As to `Nc1nnc(CCC(=O)Nc2cc(Cl)ccc2Cl)n1N`, the TGI in assay [1], in assay [2], in assay [3], in assay [4], in [5] and in assay [6] was over 100 µM throughout. Moreover, the TGI in [7], in assay [10], in assay [8] and in assay [9] was over 100 µM throughout.
For `O=C(CC(c1ccccc1)C1C(=O)NC(=S)NC1=O)c1ccc([N+](=O)[O-])cc1` (centres undefined), the TGI is over 100 µM in [1]; 59.4 µM in assay [2]; over 100 µM in [3]; over 100 µM in [4]; over 100 µM in [5]; over 100 µM in [6]. In addition, the TGI in assay [7], in assay [10], in [8] and in assay [9] was over 100 µM each time.
With `C[N+]1(CCC(=O)c2ccccc2)CCC2CCC(C2)C1` (centres undefined), the TGI in [1], in assay [2], in [3], in assay [4], in assay [5] and in [6] was over 100 µM in each case. The TGI in assay [7], in assay [10], in [8] and in [9] was over 100 µM in each case.
In the case of `COC(=O)c1cc(NC(=O)c2cc(NC(=O)Cc3c[nH]c4ccccc34)cn2C)cn1C`, the TGI in [1] was 78.5 µM; in assay [2], over 100 µM; in [3] it was 74.3 µM; in assay [4] it was over 100 µM; in assay [5], 77.2 µM; in assay [6] it was over 100 µM. The TGI in assay [7] was 48.4 µM; in assay [10] it was 92.9 µM; in assay [8] it was over 100 µM; in assay [9], 85.2 µM.
As to `CCOCC(=O)N(C)c1cccc2c3c(n(C)c12)CCCCC3`, the TGI in assay [1], in [2], in [3], in assay [4], in [5] and in [6] was over 100 µM in each case. The TGI in assay [10] is over 100 µM.
With `CC1C(=O)c2cc3c(cc2CCN(C)Cc2c1ccc1c2OCO1)OCO3` (centres undefined), the GI50 in assay [1] is over 75 µg/mL; in assay [2], over 75 µg/mL; in [3], over 75 µg/mL; in assay [4], 59 µg/mL; in assay [5], over 75 µg/mL; in [6], over 75 µg/mL. Further, the figures for the GI50 in [7], in assay [10] and in assay [8] were 34.6 µg/mL, over 75 µg/mL and over 75 µg/mL, respectively. Further, the TGI in assay [1], in assay [2], in [3], in assay [4], in [5] and in [6] was over 75 µg/mL in each case. Also, the TGI in assay [7], in assay [10] and in [8] was over 75 µg/mL each time.
As for `Cc1cc(C)c2c(=O)n(CC(O)CN3CCN(CCOCCO)CC3)sc2n1` (centres undefined), the TGI in [1] was 38.9 µM; in assay [2], over 100 µM; in assay [3], 35.3 µM; in [4], 48 µM; in assay [5], 35.4 µM; in assay [6], over 100 µM. Moreover, the TGI in [10] was found to be 5.78 µM; in [8] it was 31.3 µM; in [9], 47.8 µM.
As for `O=S(=O)(O)c1ccc2c(N=Nc3ccc(N=Nc4ccccc4)cc3)c(O)c(S(=O)(=O)O)cc2c1`, the TGI in assay [2], in assay [3], in assay [4], in assay [5], in [6] and in assay [7] was over 100 µM each time. Besides, the TGI in assay [8] and in assay [9] was over 100 µM throughout.
As to `CC1=C[C@@H](C)C[C@]2(C)CC[C@H](O2)[C@]23CC[C@](CO)(C[C@H](O2)[C@@H]2O[C@@](C)(CC2=O)[C@@H](O)[C@H]2CC[C@@]4(CCC[C@@H](O4)[C@H](C)C(=O)O[C@H]4C[C@H]([C@]5(O)OCC[C@H](C)[C@@H]5O)O[C@H]4C=C1)O2)O3`, the TGI is 0.0156 µM in assay [1]; 0.107 µM in assay [2]; over 10 µM in assay [4]; 0.196 µM in assay [5]; over 10 µM in [7]; 0.00179 µM in assay [10]. In addition, the values for the TGI in assay [8] and in assay [9] were 0.0714 µM and 0.207 µM, respectively.
As to `COc1ccc(-n2c3c(c4cc(O)ccc42)Cc2ccccc2C3=O)cc1`, the TGI is over 100 µM in assay [1]; over 100 µM in [2]; over 100 µM in assay [4]; over 100 µM in assay [5]; over 100 µM in assay [6]; 32.7 µM in assay [7]. Besides, the TGI was 31.9 µM in assay [10], over 100 µM in assay [8] and over 100 µM in [9].
For the compound `Nc1cc(S(=O)(=O)O)cc2ccc(S(=O)(=O)O)cc12`, the TGI in [1], in [2], in [3], in [4], in assay [5] and in assay [7] was over 100 µM throughout. The TGI in [10], in [8] and in assay [9] was over 100 µM each time.
For `CC(=O)Nc1ccc(C(=O)NN2C(=O)C(Cl)C2c2cccc([N+](=O)[O-])c2)cc1` (centres undefined), the TGI in assay [4], in assay [5], in assay [6], in assay [7], in [10] and in assay [8] was over 100 µM each time. In [9], this compound had a TGI of over 100 µM.
In the case of `Cn1c2[n+](c3nc(N)[nH]c(=O)c31)C1OC(C2)C(O)C1O` (centres undefined), the TGI in assay [1], in assay [2], in [3], in [4], in assay [5] and in assay [6] was over 100 µM in each case. The TGI in assay [10], in [8] and in assay [9] was over 100 µM throughout.
Consider `N=c1ccc2nc(N)nn(O)c-2c1`, for which the TGI in assay [1], in assay [2], in [3], in assay [4], in assay [6] and in assay [7] was over 100 µM each time. The TGI in [10], in [8] and in assay [9] was over 100 µM each time.
